Data taken from patent publication US8828930B2, “Hepatitis C virus NS3 protease inhibitors” (Merck Sharp & Dohme Corp., priority 2009, dated 2014).
Where two headings read alike, the source gives them in different places.

Tests used:
[1] = tested on: HCV gt 1b replicon; experiment: HCV replicon assay, compound inhibitory potency (Replicon EC50); assay type: cell-based; settings: Hepatitis C virus, GT1B
Method: Measurement of inhibition by compounds was performed using the HCV replicon system. Several different replicons encoding different HCV genotypes or mutations were used. In addition, potency measurements were made using different formats of the replicon assay, including different ways of measurements and different plating formats. See Jan M. Vrolijk et al., A replicon-based bioassay for the measurement of interferons in patients with chronic hepatitis C, 110 J. VIROLOGICAL METHODS 201 (2003); Steven S. Carroll et al., Inhibition of Hepatitis C Virus RNA Replication by 2′-Modified Nucleoside Analogs, 278(14) J. BIOLOGICAL CHEMISTRY 11979 (2003). However, the underlying principles are common to all of these determinations, and are outlined below.
Stable neomycin phosphotransferase encoding replicon-harboring cell lines were used, so all cell lines were maintained under G418 selection prior to the assay. In some cases the cell lines encoded a luciferase:NEO FUSION and could be assayed either directly by determination of RNA copy number, or indirectly through measurement of the luciferase activity.
To initiate an assay, replicon cells were plated in the presence of a dilution series of test compound in the absence of G418. Typically, the assays were performed in a 96-well plate format for manual operation, or a 384-well plate in an automated assay. Replicon cells and compound were incubated for 24 to 48 hours, depending on the assay. At the end of the assay, cells are washed free of media and compound and then lysed. For direct quantitation, RNA levels were measured by 32P-probe hybridization and protection, or in a TAQMAN-based assay and normalized to cellular cyclophilin A RNA levels. In some cases, luciferase activity was measured using a conventional luciferase assay. In all cases, EC50 determinations were calculated as a percent of a DMSO control by fitting the data to a four-parameter fit function.

[2] = biological target: NS3/4A protease gt 1b (Hepatitis C virus genotype 1b, UniProt P26663); experiment: HCV NS3 protease time-resolved fluorescence (TRF) assay, NS3/4A inhibitory activity (Ki), gt 1b; assay type: biochemical; settings: NS3/4A enzyme
Method: (§1) The HCV NS3 protease inhibitory activity of the present compounds may be tested using assays known in the art. One such assay is HCV NS3 protease time-resolved fluorescence (TRF) assay as described below and in WO 2006/102087. Other examples of such assays are described in, for example, WO 2005/046712. HCV NS3 protease inhibitors, such as those described herein have a Ki less than 50 μM, such as less than 10 μM, and less than 100 nM. Ki is determined by an NS3 protease assay. The assay is performed in a final volume of 100 μl in assay buffer containing 50 mM HEPES, pH 7.5, 150 mM NaCl, 15% glycerol, 0.15% TRITON X-100, 10 mM DTT, and 0.1% PEG 8000. NS3 protease is preincubated with various concentrations of inhibitors in DMSO for 30 minutes. The reaction is initiated by adding the TRF peptide substrate (final concentration 100 nM). NS3 mediated hydrolysis of the substrate is quenched after 1 hour at room temperature with 100 μl of 500 mM MES, pH 5.5. Product fluorescence is detected using either a VICTOR V2 or FUSION fluorophotometer (PERKIN ELMER LIFE AND ANALYTICAL SCIENCES) with excitation at 340 nm and emission at 615 nm with a 400 μs delay. Testing concentrations of different enzyme forms are selected to result in a signal to background ratio (SIB) of 10-30. IC50 values are derived using a standard four-parameter fit to the data. Ki values are derived from IC50 values using the following formula, IC50=Ki(1+[S]/KM), Eqn (1), where [S] is the concentration of substrate peptide in the reaction and KM is the Michaelis constant. See Paola Gallinari et al., Modulation of Hepatitis C Virus NS3 Protease and Helicase Activities through the Interaction with NS4A, 38 BIOCHEM. 5620 (1999); Paola Gallinari et al., Multiple Enzymatic Activities Associated with Recombinant NS3 Protein of Hepatitis C Virus, 72(8) J. VIROLOGY 6758 (1998); Mariana Taliani et al., A Continuous Assay of Hepatitis C Virus Protease Based on Resonance Energy Transfer Depsipeptide Substrates, 240 ANAL. BIOCHEM. 60 (1996).
(§2) This NS3 protease assay was performed in a final volume of 100 μl assay buffer containing 50 mM HEPES, pH 7.5, 150 mM NaCl, 15% glycerol, 0.15% TRITON X-100, 10 mM DTT, and 0.1% PEG 8000. NS3/4A protease was pre-incubated with various concentrations of inhibitors in DMSO for 30 minutes. The reaction was initiated by adding the TRF peptide substrate (final concentration 100 nM). NS3 mediated hydrolysis of the substrate was quenched after 1 hour at RT with 100 μl of 500 mM MES, pH 5.5. Product fluorescence was detected using either a V1CTOR V2 or FUSION fluorophotometer (PERKIN ELMER LIFE AND ANALYTICAL SCIENCES) with excitation at 340 nm and emission at 615 nm with a 400 us delay. Testing concentrations of different enzyme forms were selected to result in a signal to background ratio (SIB) of 10-30. IC50 values were derived using a standard four-parameter fit to the data. K, values are derived from IC50 values using the following formula, IC50=Ki(1+[S]/KM), Eqn (1), where [S] is the concentration of substrate peptide in the reaction and KM is the Michaelis constant. See Paola Gallinari et al., Modulation of Hepatitis C Virus NS3 Protease and Helicase Activities through the Interaction with NS4A, 38 BIOCHEM. 5620 (1999); Paola Gallinari et al., Multiple Enzymatic Activities Associated with Recombinant NS3 Protein of Hepatitis C Virus, 72(8) J. VIROLOGY 6758 (1998); Mariana Milani et al., A Continuous Assay of Hepatitis C Virus Protease Based on Resonance Energy Transfer Depsipeptide Substrates, 240 ANAL. BIOCHEM. 60 (1996); Shi-Shan Mao et al., A time-resolved, internally quenched fluorescence assay to characterize inhibition of hepatitis C virus nonstructural protein 3-4A protease at low enzyme concentrations, 373 ANALYTICAL BIOCHEMISTRY 1 (2008). Measuring Compound Inhibitory Potency (Replicon EC50 (nM))

[3] = biological target: NS3/4A protease gt 3a (Hepatitis C virus genotype 3a, UniProt Q81258); experiment: HCV NS3 protease time-resolved fluorescence (TRF) assay, NS3/4A inhibitory activity (Ki), gt 3a; assay type: biochemical; settings: NS3/4A enzyme
Method: as §1, §2

[4] = Plasma and liver concentrations and pharmacokinetics (Rat PK); assay type: in vivo; design: Rat PK 5 mpk AUC: unit not given here; settings: for concentration at 4 h: 5 mg/kg, 5 mpk, liver concentration at 4 h; for Rat PK 5 mpk AUC: area under the plasma concentration/time curve
Method: Test compounds were dissolved in a suitable dosing vehicle for i.v. administration (e.g., 20%:60%:20% DMSO:PEG400:H2O) or per oral administration (e.g., 10% POLYSORBATE80:90% H2O or 100% PEG400). Animals were administered (n=2 or 3) using a crossover study design for non-rodents. Plasma samples were collected at time points between 2 minutes and 24 hours, and compound levels were determined by RP-LC/MS/MS. Liver samples were collected post-mortem in rat. Liver samples were weighed, homogenized, and diluted using techniques known to those skilled in the art, and compound levels were determined by RP-LC/MS/MS.
Pharmacokinetic parameters were calculated based on non-compartmental analysis (e.g., using WATSON, WINNOLIN). Predose concentrations that were below the limit of quantitation (BLQ) were assigned a value of 0, Standard pharmacokinetic parameters CLp, Vdss, half-life (only for IV), % F, Cmax, Tmax, AUC0-last, AUC0-infinity were calculated. AUC values were calculated using linear trapezoidal method for ascending concentrations and the log trapezoidal method for descending concentrations.

[5] = biological target: NS3/4A protease gt 1b A156V (Hepatitis C virus genotype 1b, UniProt P26663, A1182V); experiment: HCV NS3 protease time-resolved fluorescence (TRF) assay, NS3/4A inhibitory activity (Ki), gt 1b A156V; assay type: biochemical
Method: as §1, §2

[6] = 10% fetal bovine serum, read-out: gt 1b Replicon EC50 10% FBS
[7] = 50% normal human serum, read-out: gt 1b Replicon EC50 50% NHS

Structure (SMILES): CC1(S(=O)(=O)NC(=O)[C@@]23C[C@H]2/C=C\CCCCC[C@@H]2NC(=O)O[C@@H]4C[C@H]4CCCCCc4nc5ccccc5nc4O[C@@H]4C[C@@H](C(=O)N3)N(C4)C2=O)CC1 [Example 9, (3R,20R,22R,26S,32Z,34S,36R,39S)—N-[(1-Methylcyclopropyl)sulfonyl]-24,38,40-trioxo-4,23-dioxa-1,6,13,25,37-pentaazaheptacyclo[24.13.1.1^3,39.0^5,14.0^7,12.0^20,22.0^34,36]hentetraconta-5,7,9,11,13,32-hexaene-36-carboxamide]
- EC50 [1, 6]: 2 nM
- EC50 [1, 7]: 11 nM
- Ki [2]: 0.03 nM
- Ki [3]: 0.52 nM
- concentration at 4 h [4]: 20 µM
- Rat PK 5 mpk AUC [4]: 0.26
- Ki [5]: 0.8 nM

Structure (SMILES): COc1ccc2nc3c(nc2c1)O[C@@H]1C[C@H]2C(=O)N[C@]4(C(=O)NS(=O)(=O)C5CC5)C[C@H]4/C=C\CCCCC[C@H](NC(=O)O[C@]4(C)C[C@H]4CCCCC3)C(=O)N2C1 [Example 5, (3R,20R,22R,26S,32Z,34S,36R,39S)—N-(Cyclopropylsulfonyl)-9-methoxy-22-methyl-24,38,40-trioxo-4,23-dioxa-1,6,13,25,37-pentaazaheptacyclo[24.13.1.1^3,39.0^5,14.0^7,12.0^20,22.0^34,36]hentetraconta-5,7,9,11,13,32-hexaene-36-carboxamide]
- EC50 [1, 6]: 1 nM
- EC50 [1, 7]: 6 nM
- Ki [2]: 0.02 nM
- Ki [3]: 0.25 nM
- concentration at 4 h [4]: 20 µM
- Rat PK 5 mpk AUC [4]: 0.18
- Ki [5]: 0.7 nM

Structure (SMILES): COc1ccc2nc3c(nc2c1)O[C@@H]1C[C@H]2C(=O)N[C@]4(C(=O)NS(=O)(=O)C5(C)CC5)C[C@H]4/C=C\CCCCC[C@H](NC(=O)O[C@@H]4C[C@H]4CCCCC3)C(=O)N2C1 [Example 4, (3R,20R,22R,26S,32Z,34S,36R,39S)-9-Methoxy-N-[(1-methylcyclopropyl)sulfonyl]-24,38,40-trioxo-4,23-dioxa-1,6,13,25,37-pentaazaheptacyclo[24.13.1.1^3,39.0^5,14.0^7,12.0^20,22.0^34,36]hentetraconta-5,7,9,11,13,32-hexaene-36-carboxamide]
- EC50 [1, 6]: 2 nM
- EC50 [1, 7]: 4 nM
- Ki [2]: 0.04 nM
- Ki [3]: 0.27 nM
- concentration at 4 h [4]: 19 µM
- Rat PK 5 mpk AUC [4]: 0.1
- Ki [5]: 0.6 nM

Structure (SMILES): CC1(S(=O)(=O)NC(=O)[C@@]23C[C@H]2/C=C\CCCCC[C@@H]2NC(=O)O[C@@H]4CCC[C@H]4CCCCCc4nc5ccccc5nc4O[C@@H]4C[C@@H](C(=O)N3)N(C4)C2=O)CC1 [Example 7, (3R,20R,24R,28S,34Z,36S,38R,41S)—N-[(1-Methylcyclopropyl)sulfonyl]-26,40,42-trioxo-4,25-dioxa-1,6,13,27,39-pentaazaheptacyclo[26.13.1.1^3,41.0^5,14.0^7,12.0^20,24.0^36,38]tritetraconta-5,7,9,11,13,34-hexaene-38-carboxamide]
- EC50 [1, 6]: 2 nM
- EC50 [1, 7]: 10 nM
- Ki [2]: 0.02 nM
- Ki [3]: 0.72 nM
- concentration at 4 h [4]: 41 µM
- Rat PK 5 mpk AUC [4]: 1.35
- Ki [5]: 1.2 nM

Structure (SMILES): COc1ccc2nc3c(nc2c1)O[C@@H]1C[C@H]2C(=O)N[C@]4(C(=O)NS(=O)(=O)C5CC5)C[C@H]4/C=C\CCCCC[C@H](NC(=O)O[C@@H]4C[C@H]4CCCCC3)C(=O)N2C1 [Example 3, (3R,20R,22R,26S,32Z,34S,36R,39S)—N-(Cyclopropylsulfonyl)-9-methoxy-24,38,40-trioxo-4,23-dioxa-1,6,13,25,37-pentaazaheptacyclo[24.13.1.1^3,39.0^5,14.0^7,12.0^20,22.0^34,36]hentetraconta-5,7,9,11,13,32-hexaene-36-carboxamide]
- EC50 [1, 6]: 2 nM
- EC50 [1, 7]: 8 nM
- Ki [2]: 0.02 nM
- Ki [3]: 0.24 nM
- concentration at 4 h [4]: 13 µM
- Rat PK 5 mpk AUC [4]: 0.19
- Ki [5]: 0.8 nM

Structure (SMILES): CC1(S(=O)(=O)NC(=O)[C@@]23C[C@H]2/C=C\CCCCC[C@@H]2NC(=O)O[C@]4(C)C[C@H]4CCCCCc4nc5ccccc5nc4O[C@@H]4C[C@@H](C(=O)N3)N(C4)C2=O)CC1 [Example 11, (3R,20R,22R,26S,32Z,34S,36R,39S)-22-Methyl-N-[(1-methylcyclopropyl)sulfonyl]-24,38,40-trioxo-4,23-dioxa-1,6,13,25,37-pentaazaheptacyclo[24.13.1.1^3,39.0^5,14.0^7,12.0^20,22.0^34,36]hentetraconta-5,7,9,11,13,32-hexaene-36-carboxamide]
- EC50 [1, 6]: 1 nM
- EC50 [1, 7]: 5 nM
- Ki [2]: 0.02 nM
- Ki [3]: 0.37 nM
- concentration at 4 h [4]: 4 µM
- Rat PK 5 mpk AUC [4]: 0.07
- Ki [5]: 0.5 nM
